Results: ChEMBL document CHEMBL1765075, “Discovery and structure-activity relationship of 3-aminopyrid-2-ones as potent and selective interleukin-2 inducible T-cell kinase (Itk) inhibitors” (J Med Chem, 2011)

Key:
[1] = molecular target: Mitogen-activated protein kinase 3 (Homo sapiens, UniProt P27361); assay: Inhibition of ERK1
[2] = molecular target: Platelet-derived growth factor receptor alpha (Homo sapiens, UniProt P16234); assay: Inhibition of PDGFRalpha
Angiopoietin-1 receptor = Angiopoietin-1 receptor (Homo sapiens, UniProt Q02763); assay: Inhibition of TIE2
[3] = molecular target: Receptor tyrosine-protein kinase erbB-4 (Homo sapiens, UniProt Q15303); assay: Inhibition of ERBB4
[4] = molecular target: Mitogen-activated protein kinase 14 (Homo sapiens, UniProt Q16539); assay: Inhibition of P38alpha
[5] = molecular target: Tyrosine-protein kinase ZAP-70 (Homo sapiens, UniProt P43403); assay: Inhibition of ZAP70
[6] = molecular target: Tyrosine-protein kinase Fer (Homo sapiens, UniProt P16591); assay: Inhibition of FER
[7] = Permeability across basolateral to apical side of human Caco2 cells after 120 mins by LC-MS/MS analysis; format: ADME, cell-based; settings: Caco-2, read-out: permeability
[8] = molecular target: Proto-oncogene tyrosine-protein kinase ROS (Homo sapiens, UniProt P08922); assay: Inhibition of ROS
[9] = molecular target: T1, Tyrosine-protein kinase ITK/TSK (Homo sapiens, UniProt Q08881); assay: Inhibition of Itk after 40 mins by radiometric phosphate incorporation assay
T1 sequence (Q08881 whole entry): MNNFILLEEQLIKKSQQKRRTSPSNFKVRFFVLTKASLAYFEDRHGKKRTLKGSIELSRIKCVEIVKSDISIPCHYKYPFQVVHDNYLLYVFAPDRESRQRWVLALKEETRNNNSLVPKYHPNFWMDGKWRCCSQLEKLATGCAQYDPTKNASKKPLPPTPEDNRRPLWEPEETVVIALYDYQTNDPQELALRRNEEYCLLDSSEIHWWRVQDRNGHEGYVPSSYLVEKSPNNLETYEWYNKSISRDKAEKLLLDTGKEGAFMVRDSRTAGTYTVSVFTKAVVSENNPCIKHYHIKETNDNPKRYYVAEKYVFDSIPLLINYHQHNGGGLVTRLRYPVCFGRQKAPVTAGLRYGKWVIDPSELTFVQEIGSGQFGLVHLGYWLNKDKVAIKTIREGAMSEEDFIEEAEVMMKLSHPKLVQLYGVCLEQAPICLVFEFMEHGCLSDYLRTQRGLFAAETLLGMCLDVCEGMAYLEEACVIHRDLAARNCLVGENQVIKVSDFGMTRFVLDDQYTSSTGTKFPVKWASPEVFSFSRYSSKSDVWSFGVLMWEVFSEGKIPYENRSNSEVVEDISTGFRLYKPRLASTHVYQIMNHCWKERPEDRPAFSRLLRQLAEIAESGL

[10] = molecular target: T2, Proto-oncogene tyrosine-protein kinase Src (Homo sapiens, UniProt P12931); assay: Inhibition of Src after 10 mins by radiometric phosphate incorporation assay
[11] = molecular target: T3, Receptor-type tyrosine-protein kinase FLT3 (Homo sapiens, UniProt P36888); assay: Inhibition of Flt3 after 20 mins by radiometric phosphate incorporation assay
T3 sequence (P36888 whole entry): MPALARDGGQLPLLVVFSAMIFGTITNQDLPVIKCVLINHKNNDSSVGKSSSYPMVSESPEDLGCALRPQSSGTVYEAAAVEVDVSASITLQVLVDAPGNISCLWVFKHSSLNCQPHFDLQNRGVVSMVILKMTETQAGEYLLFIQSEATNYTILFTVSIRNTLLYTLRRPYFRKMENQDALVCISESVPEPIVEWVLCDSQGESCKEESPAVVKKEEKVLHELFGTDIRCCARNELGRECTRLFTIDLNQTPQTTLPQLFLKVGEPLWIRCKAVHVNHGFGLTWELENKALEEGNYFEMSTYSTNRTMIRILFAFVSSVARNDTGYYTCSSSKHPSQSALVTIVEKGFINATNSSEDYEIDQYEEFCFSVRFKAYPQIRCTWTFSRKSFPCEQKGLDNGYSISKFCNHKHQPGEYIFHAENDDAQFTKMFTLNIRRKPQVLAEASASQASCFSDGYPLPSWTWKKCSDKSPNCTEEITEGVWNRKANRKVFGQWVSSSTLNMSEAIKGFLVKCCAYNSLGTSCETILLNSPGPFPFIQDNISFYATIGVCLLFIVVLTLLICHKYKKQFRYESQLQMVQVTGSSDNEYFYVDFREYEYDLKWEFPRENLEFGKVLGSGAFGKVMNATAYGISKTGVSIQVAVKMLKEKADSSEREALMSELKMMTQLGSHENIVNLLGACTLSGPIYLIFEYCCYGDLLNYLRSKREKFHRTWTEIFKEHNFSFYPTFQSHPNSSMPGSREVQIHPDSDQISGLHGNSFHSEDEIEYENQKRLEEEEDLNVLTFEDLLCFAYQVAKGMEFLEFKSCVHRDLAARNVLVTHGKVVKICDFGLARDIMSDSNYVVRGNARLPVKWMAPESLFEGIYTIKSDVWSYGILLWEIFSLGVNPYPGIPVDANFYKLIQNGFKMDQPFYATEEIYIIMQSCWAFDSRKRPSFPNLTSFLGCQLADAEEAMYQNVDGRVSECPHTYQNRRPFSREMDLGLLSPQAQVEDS

Focal adhesion kinase 1 = Focal adhesion kinase 1 (Homo sapiens, UniProt Q05397); assay: Inhibition of FAK
[12] = molecular target: RAC-alpha serine/threonine-protein kinase (Homo sapiens, UniProt P31749); assay: Inhibition of AKT1
[13] = molecular target: T2, Proto-oncogene tyrosine-protein kinase Src; assay: Inhibition of SRC
[14] = molecular target: Calcium/calmodulin-dependent protein kinase type 1D (Homo sapiens, UniProt Q8IU85); assay: Inhibition of CAMK1D
Ephrin type-B receptor 2 = Ephrin type-B receptor 2 (Homo sapiens, UniProt P29323); assay: Inhibition of EPHB2
Aurora kinase A = Aurora kinase A (Homo sapiens, UniProt O14965); assay: Inhibition of AURORA A
Insulin receptor = Insulin receptor (Homo sapiens, UniProt P06213); assay: Inhibition of IR
[15] = molecular target: Death-associated protein kinase 3 (Homo sapiens, UniProt O43293); assay: Inhibition of ZIPK
[16] = Inhibition of AMPK
Ceramide kinase = Ceramide kinase (Homo sapiens, UniProt Q8TCT0); assay: Inhibition of CERK
[17] = molecular target: Mast/stem cell growth factor receptor Kit (Homo sapiens, UniProt P10721); assay: Inhibition of KIT
[18] = molecular target: Interleukin-1 receptor-associated kinase 4 (Homo sapiens, UniProt Q9NWZ3); assay: Inhibition of IRAK4
[19] = molecular target: Protein kinase C theta type (Homo sapiens, UniProt Q04759); assay: Inhibition of PKCtheta
[20] = molecular target: Serine/threonine-protein kinase TBK1 (Homo sapiens, UniProt Q9UHD2); assay: Inhibition of TBK1
[21] = molecular target: Mitogen-activated protein kinase kinase kinase 8 (Homo sapiens, UniProt P41279); assay: Inhibition of COT
[22] = molecular target: Mitogen-activated protein kinase 1 (Homo sapiens, UniProt P28482); assay: Inhibition of ERK2
[23] = molecular target: T3, Receptor-type tyrosine-protein kinase FLT3; assay: Inhibition of FLT3

T2 sequence (P12931 2-536 limits assumed): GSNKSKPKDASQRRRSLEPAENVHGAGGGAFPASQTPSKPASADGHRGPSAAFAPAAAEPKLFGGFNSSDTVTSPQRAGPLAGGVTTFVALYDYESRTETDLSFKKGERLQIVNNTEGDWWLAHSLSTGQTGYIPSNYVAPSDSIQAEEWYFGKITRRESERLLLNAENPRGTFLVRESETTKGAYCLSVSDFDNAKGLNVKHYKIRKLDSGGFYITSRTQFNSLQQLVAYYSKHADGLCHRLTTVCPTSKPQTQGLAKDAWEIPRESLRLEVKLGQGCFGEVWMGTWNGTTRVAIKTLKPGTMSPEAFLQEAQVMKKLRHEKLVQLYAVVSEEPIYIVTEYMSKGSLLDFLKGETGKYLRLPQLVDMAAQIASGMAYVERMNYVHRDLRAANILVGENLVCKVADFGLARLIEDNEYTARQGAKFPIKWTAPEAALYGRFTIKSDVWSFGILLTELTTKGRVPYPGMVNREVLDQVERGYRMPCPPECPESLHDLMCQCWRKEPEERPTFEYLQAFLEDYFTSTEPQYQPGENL
Serine/threonine-protein kinase TBK1, sequence (Q9UHD2 whole entry): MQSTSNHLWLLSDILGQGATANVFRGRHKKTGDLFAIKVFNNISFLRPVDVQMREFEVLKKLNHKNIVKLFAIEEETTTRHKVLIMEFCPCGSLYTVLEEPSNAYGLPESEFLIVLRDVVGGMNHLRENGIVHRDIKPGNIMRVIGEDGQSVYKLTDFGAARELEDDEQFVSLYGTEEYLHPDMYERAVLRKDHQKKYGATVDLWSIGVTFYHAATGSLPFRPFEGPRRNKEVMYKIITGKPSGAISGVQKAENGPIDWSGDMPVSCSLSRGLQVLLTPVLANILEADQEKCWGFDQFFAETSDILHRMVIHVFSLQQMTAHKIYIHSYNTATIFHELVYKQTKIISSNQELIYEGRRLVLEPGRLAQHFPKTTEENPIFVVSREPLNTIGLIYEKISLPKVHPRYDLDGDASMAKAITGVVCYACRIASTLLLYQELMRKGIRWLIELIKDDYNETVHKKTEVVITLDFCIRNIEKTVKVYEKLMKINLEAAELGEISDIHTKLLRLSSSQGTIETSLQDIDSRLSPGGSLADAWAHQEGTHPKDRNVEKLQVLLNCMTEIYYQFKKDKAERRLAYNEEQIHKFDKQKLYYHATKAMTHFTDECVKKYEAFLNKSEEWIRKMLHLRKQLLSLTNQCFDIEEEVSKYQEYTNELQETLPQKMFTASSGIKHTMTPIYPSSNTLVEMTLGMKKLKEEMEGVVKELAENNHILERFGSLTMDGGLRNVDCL
Mitogen-activated protein kinase 1, sequence (P28482 whole entry): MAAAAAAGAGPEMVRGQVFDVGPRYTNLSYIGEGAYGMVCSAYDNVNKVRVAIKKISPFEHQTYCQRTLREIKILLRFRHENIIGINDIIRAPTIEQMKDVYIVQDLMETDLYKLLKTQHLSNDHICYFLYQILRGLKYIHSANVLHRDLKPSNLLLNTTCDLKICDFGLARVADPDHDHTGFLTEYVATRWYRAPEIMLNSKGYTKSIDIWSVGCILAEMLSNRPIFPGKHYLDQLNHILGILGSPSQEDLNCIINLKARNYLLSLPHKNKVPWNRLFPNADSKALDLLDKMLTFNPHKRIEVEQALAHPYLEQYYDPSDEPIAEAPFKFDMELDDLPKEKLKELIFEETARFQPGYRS
Angiopoietin-1 receptor, sequence (Q02763 whole entry): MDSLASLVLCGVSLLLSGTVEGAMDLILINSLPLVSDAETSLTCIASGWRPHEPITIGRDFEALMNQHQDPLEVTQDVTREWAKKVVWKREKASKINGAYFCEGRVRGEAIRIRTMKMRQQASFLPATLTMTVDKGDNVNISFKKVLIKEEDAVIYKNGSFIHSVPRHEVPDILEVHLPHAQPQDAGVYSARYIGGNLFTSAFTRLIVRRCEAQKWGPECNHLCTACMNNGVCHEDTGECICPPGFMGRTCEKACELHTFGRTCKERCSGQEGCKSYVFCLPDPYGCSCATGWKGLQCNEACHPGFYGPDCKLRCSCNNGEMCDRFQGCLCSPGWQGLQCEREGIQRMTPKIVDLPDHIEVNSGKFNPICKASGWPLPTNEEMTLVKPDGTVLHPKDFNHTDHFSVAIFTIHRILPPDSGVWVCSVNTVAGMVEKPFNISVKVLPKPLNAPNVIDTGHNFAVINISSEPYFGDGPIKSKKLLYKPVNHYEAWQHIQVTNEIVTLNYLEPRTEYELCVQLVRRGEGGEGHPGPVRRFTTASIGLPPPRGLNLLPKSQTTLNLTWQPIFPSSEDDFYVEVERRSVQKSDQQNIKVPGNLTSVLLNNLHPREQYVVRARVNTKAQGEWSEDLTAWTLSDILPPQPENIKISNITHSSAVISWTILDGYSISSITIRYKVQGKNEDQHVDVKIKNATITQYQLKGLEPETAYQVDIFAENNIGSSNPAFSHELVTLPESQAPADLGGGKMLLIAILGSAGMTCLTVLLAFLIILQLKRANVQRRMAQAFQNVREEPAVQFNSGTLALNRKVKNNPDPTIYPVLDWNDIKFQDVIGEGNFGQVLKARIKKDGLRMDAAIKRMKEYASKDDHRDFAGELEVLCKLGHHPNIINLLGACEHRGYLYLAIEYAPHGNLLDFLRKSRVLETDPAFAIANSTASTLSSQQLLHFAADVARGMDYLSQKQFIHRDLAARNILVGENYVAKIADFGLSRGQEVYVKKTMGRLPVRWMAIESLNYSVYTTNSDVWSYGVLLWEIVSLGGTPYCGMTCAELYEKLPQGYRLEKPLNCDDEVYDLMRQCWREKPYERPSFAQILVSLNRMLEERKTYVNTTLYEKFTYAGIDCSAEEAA
Tyrosine-protein kinase Fer, sequence (P16591 whole entry): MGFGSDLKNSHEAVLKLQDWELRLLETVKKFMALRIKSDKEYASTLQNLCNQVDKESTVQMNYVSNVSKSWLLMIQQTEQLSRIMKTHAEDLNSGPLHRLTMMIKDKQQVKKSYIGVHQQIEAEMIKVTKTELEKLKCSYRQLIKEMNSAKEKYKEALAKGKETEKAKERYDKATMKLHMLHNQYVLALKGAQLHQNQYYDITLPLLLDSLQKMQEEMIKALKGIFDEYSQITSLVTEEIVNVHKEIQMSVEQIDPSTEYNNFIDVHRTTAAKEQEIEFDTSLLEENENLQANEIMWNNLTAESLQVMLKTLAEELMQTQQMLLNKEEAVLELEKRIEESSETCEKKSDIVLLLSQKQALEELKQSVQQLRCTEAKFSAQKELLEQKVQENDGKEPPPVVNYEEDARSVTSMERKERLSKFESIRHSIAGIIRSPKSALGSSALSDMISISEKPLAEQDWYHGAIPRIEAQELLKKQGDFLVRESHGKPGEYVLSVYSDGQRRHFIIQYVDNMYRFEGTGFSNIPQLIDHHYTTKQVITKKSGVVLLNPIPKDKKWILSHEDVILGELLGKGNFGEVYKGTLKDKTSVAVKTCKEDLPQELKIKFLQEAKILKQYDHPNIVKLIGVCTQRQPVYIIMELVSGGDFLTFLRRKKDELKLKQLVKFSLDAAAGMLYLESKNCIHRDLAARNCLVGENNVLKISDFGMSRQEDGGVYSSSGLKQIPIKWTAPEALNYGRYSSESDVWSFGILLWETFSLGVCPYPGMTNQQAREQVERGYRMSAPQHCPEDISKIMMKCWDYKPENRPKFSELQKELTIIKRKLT
Death-associated protein kinase 3, sequence (O43293 whole entry): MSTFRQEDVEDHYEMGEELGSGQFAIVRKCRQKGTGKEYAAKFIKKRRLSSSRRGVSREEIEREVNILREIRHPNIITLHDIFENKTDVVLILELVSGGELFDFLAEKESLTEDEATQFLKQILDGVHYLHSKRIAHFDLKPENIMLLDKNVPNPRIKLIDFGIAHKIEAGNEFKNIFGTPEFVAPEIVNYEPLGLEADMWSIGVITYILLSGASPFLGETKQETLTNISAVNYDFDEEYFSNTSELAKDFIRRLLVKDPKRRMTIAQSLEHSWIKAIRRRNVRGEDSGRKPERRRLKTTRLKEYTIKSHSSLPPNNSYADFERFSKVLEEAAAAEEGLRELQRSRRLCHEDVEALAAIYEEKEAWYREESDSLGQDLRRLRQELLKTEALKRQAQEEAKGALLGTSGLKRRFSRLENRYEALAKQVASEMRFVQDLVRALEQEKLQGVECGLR
Aurora kinase A, sequence (O14965 whole entry): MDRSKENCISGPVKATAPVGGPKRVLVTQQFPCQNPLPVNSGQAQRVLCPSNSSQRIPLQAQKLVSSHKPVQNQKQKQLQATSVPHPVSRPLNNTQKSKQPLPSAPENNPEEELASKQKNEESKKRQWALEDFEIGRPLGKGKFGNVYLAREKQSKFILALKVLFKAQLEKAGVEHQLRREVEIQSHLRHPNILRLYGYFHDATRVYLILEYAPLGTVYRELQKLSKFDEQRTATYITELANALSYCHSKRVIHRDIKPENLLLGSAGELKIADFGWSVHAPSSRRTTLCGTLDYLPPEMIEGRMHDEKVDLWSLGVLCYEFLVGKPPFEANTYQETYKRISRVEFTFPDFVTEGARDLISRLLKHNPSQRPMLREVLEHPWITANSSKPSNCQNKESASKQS
Mitogen-activated protein kinase 3, sequence (P27361 whole entry): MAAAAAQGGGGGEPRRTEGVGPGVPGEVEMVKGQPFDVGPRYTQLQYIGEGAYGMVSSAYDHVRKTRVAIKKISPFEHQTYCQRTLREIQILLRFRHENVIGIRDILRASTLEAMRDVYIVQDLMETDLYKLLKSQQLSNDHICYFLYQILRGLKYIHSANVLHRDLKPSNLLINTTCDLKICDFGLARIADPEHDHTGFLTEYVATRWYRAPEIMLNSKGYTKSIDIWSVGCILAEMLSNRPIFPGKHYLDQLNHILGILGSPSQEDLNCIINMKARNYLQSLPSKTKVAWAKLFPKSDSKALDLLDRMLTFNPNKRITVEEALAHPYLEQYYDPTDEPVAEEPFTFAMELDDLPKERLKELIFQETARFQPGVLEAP

For `CNc1cncc(-c2c[nH]c(=O)c(NC(=O)c3ccc(N4CCC[C@H]4CN4CCCC4)cc3)c2)n1`, the Ki [1] was greater than 2 µM, the Ki [2] was greater than 1 µM and the Ki (Angiopoietin-1 receptor) was greater than 1 µM. The Ki [3] was greater than 1 µM, the Ki [4] was greater than 1 µM and the Ki [5] was greater than 2 µM. The Ki [6] was greater than 1 µM, the Papp B→A at 2 h [7] was 324 nm/s and the Ki [8] was greater than 1 µM. It also gave a Ki [9] of 0.007 µM, a Ki [10] of 0.12 µM and a Ki [11] of 0.02 µM. The Ki (Focal adhesion kinase 1) was greater than 1 µM, the Ki [12] was greater than 1 µM and the Ki [13] was 0.12 µM. The Ki [14] was greater than 1 µM, the Ki (Ephrin type-B receptor 2) was greater than 1 µM and the Ki (Aurora kinase A) was greater than 1 µM. For the same compound, the Ki (Insulin receptor) was greater than 1 µM, the Ki [15] was greater than 1 µM and the Ki [16] was greater than 1 µM. It also gave a Ki (Ceramide kinase) greater than 1 µM, a Ki [17] of 0.2 µM and a Ki [18] greater than 1 µM. The Ki [19] was greater than 2 µM, the Ki [20] was greater than 1 µM and the Ki [21] was greater than 1 µM. It also gave a Ki [22] greater than 2 µM and a Ki [23] of 0.02 µM.
